Measured values: the NIST ThermoML archive (doi:10.1021/je034203p)

Assay: xn = mol fraction of the nth substance listed
Details: 298.15 K, 101.3 kPa, Liquid; for viscosity: Capillary tube (Ostwald / Ubbelohde) method

ClC=C(Cl)Cl [trichloroethene] + CCC(C)=O
Details | mass density [kg/m3] | viscosity [mPa·s]
x1 = 0.1004 | 861.2 | 0.4307
x1 = 0.2005 | 924.2 | 0.4566
x1 = 0.3002 | 987.2 | 0.4835
x1 = 0.4005 | 1052.5 | 0.5088
x1 = 0.5005 | 1117.6 | 0.5281
x1 = 0.6007 | 1183.7 | 0.5391
x1 = 0.7004 | 1249.6 | 0.5455
x1 = 0.8004 | 1315.5 | 0.5499
x1 = 0.8998 | 1385.4 | 0.5495
x1 = 1 | 1455.7 | 0.551

ClC(Cl)=C(Cl)Cl [tetrachloroethene] + CC(C)=O
Details | mass density [kg/m3] | viscosity [mPa·s]
x1 = 0.0742 | 862.2 | 0.3537
x1 = 0.1529 | 943.8 | 0.398
x1 = 0.2362 | 1025.5 | 0.4442
x1 = 0.3247 | 1107.7 | 0.4942
x1 = 0.4192 | 1189.6 | 0.5459
x1 = 0.5201 | 1272.3 | 0.6021
x1 = 0.6279 | 1356.2 | 0.6581
x1 = 0.7428 | 1440.3 | 0.7167
x1 = 0.8671 | 1524.6 | 0.7802
x1 = 1 | 1610.2 | 0.8474

Cc1ccccc1 [toluene] + ClC(Cl)=C(Cl)Cl
x2 = 0
Details | mass density [kg/m3] | viscosity [mPa·s]
– | 860.5 | 0.5641

ClC(Cl)=C(Cl)Cl [tetrachloroethene] + CCCCO
Details | mass density [kg/m3] | viscosity [mPa·s]
x1 = 0.0901 | 885.2 | 2.255
x1 = 0.1823 | 964.3 | 1.986
x1 = 0.2766 | 1043.5 | 1.717
x1 = 0.3727 | 1122.5 | 1.496
x1 = 0.4713 | 1201.7 | 1.314
x1 = 0.5727 | 1283 | 1.158
x1 = 0.6759 | 1364.2 | 1.045
x1 = 0.7809 | 1444.6 | 0.9519
x1 = 0.8891 | 1526 | 0.8894
x1 = 1 | 1610.2 | 0.8474

Cc1ccccc1 [toluene] + ClC=C(Cl)Cl
x2 = 0
Details | mass density [kg/m3] | viscosity [mPa·s]
– | 860.5 | 0.5641

CO [methanol] + ClC=C(Cl)Cl
x2 = 0
Details | mass density [kg/m3] | viscosity [mPa·s]
– | 788.1 | 0.5482

ClC(Cl)=C(Cl)Cl [tetrachloroethene] + CCOC(C)=O
Details | mass density [kg/m3] | viscosity [mPa·s]
x1 = 0.0962 | 961.2 | 0.4946
x1 = 0.1932 | 1030.8 | 0.5525
x1 = 0.291 | 1100.6 | 0.6095
x1 = 0.3899 | 1171 | 0.6633
x1 = 0.4894 | 1241.8 | 0.711
x1 = 0.5901 | 1313.6 | 0.7481
x1 = 0.6911 | 1385.7 | 0.7788
x1 = 0.7937 | 1460 | 0.8078
x1 = 0.8964 | 1534.5 | 0.8295
x1 = 1 | 1610.2 | 0.8474

CCC(C)O (stereo not given) [butan-2-ol] + ClC=C(Cl)Cl
x2 = 0
Details | mass density [kg/m3] | viscosity [mPa·s]
– | 804.8 | 3.103

CCCCO [butan-1-ol] + ClC(Cl)=C(Cl)Cl
x2 = 0
Details | mass density [kg/m3] | viscosity [mPa·s]
– | 806.3 | 2.538

CCOC(C)=O [ethyl acetate] + ClC(Cl)=C(Cl)Cl
x2 = 0
Details | mass density [kg/m3] | viscosity [mPa·s]
– | 894 | 0.4274

c1ccccc1 [benzene] + ClC=C(Cl)Cl
x2 = 0
Details | mass density [kg/m3] | viscosity [mPa·s]
– | 869.7 | 0.608

CC(C)O [propan-2-ol] + ClC=C(Cl)Cl
x2 = 0
Details | mass density [kg/m3] | viscosity [mPa·s]
– | 784.3 | 2.044

ClC=C(Cl)Cl [trichloroethene] + Cc1ccccc1
Details | mass density [kg/m3] | viscosity [mPa·s]
x1 = 0.1166 | 917.5 | 0.5592
x1 = 0.2291 | 975.6 | 0.5535
x1 = 0.3367 | 1033 | 0.5498
x1 = 0.4417 | 1090.9 | 0.5452
x1 = 0.5426 | 1149 | 0.5432
x1 = 0.64 | 1210.5 | 0.5445
x1 = 0.7348 | 1270.8 | 0.5454
x1 = 0.8257 | 1331.5 | 0.5477
x1 = 0.9147 | 1393.2 | 0.5495
x1 = 1 | 1455.7 | 0.551

ClC=C(Cl)Cl [trichloroethene] + ClC(Cl)(Cl)Cl
Details | mass density [kg/m3] | viscosity [mPa·s]
x1 = 0.1068 | 1568.1 | 0.8568
x1 = 0.212 | 1552.3 | 0.8098
x1 = 0.315 | 1536.3 | 0.7632
x1 = 0.4171 | 1520.8 | 0.7186
x1 = 0.5178 | 1506.7 | 0.6826
x1 = 0.6175 | 1495.3 | 0.6511
x1 = 0.7152 | 1484.6 | 0.6226
x1 = 0.8114 | 1475 | 0.5965
x1 = 0.9064 | 1464.6 | 0.5727
x1 = 1 | 1455.7 | 0.551

CCC(C)O (stereo not given) [butan-2-ol] + ClC(Cl)=C(Cl)Cl
x2 = 0
Details | mass density [kg/m3] | viscosity [mPa·s]
– | 804.8 | 3.103

ClC=C(Cl)Cl [trichloroethene] + CCO
Details | mass density [kg/m3] | viscosity [mPa·s]
x1 = 0.0673 | 852.4 | 1.047
x1 = 0.1397 | 918.2 | 0.9855
x1 = 0.2173 | 983.9 | 0.9272
x1 = 0.3018 | 1049.4 | 0.8651
x1 = 0.3932 | 1115.8 | 0.8082
x1 = 0.493 | 1182.4 | 0.7528
x1 = 0.602 | 1249.4 | 0.6984
x1 = 0.7215 | 1317.1 | 0.647
x1 = 0.8563 | 1385.6 | 0.5974
x1 = 1 | 1455.7 | 0.551

ClC=C(Cl)Cl [trichloroethene] + COC(C)=O
Details | mass density [kg/m3] | viscosity [mPa·s]
x1 = 0.09 | 972.6 | 0.4128
x1 = 0.182 | 1022.8 | 0.4443
x1 = 0.2755 | 1074.4 | 0.4699
x1 = 0.372 | 1125.3 | 0.4925
x1 = 0.4703 | 1177.5 | 0.5147
x1 = 0.5713 | 1230.9 | 0.5325
x1 = 0.6748 | 1283.9 | 0.5447
x1 = 0.7806 | 1341 | 0.555
x1 = 0.8886 | 1397.9 | 0.5598
x1 = 1 | 1455.7 | 0.551

ClC=C(Cl)Cl [trichloroethene] + CC(C)=O
Details | mass density [kg/m3] | viscosity [mPa·s]
x1 = 0.084 | 845.9 | 0.3412
x1 = 0.1712 | 912.3 | 0.3688
x1 = 0.2608 | 978.8 | 0.3958
x1 = 0.3544 | 1045 | 0.4244
x1 = 0.4519 | 1111.6 | 0.4501
x1 = 0.5528 | 1179 | 0.4723
x1 = 0.6582 | 1246.4 | 0.4906
x1 = 0.7671 | 1315.6 | 0.5107
x1 = 0.8815 | 1385.7 | 0.5309
x1 = 1 | 1455.7 | 0.551

CC(C)O [propan-2-ol] + ClC(Cl)=C(Cl)Cl
x2 = 0
Details | mass density [kg/m3] | viscosity [mPa·s]
– | 784.3 | 2.044
